# Laboratory results taken from US20120190666A1, “Heteroaryl Compounds as PIKK Inhibitors” (Amgen Inc., priority 2009, published 2012).
# Assays:
# [1] = test system: phosphorylation of Akt at Serine 473 in U87 MG cells; assay: pAkt AlphaScreen (U87 cell); format: cell-based; settings: pAkt at Serine 473, U87 MG cells, two hours with compound
# Method in brief: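 U87 MG cells (5K per well, plated overnight) treated 2 h at 37 °C with compound, 25 μM to 11.9 pM final in 0.5% DMSO. Lysates assayed for Akt Ser473 phosphorylation with SureFire AlphaScreen, incubated overnight at room temperature; IC50 from percent of control.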
# mTOR = mTOR (Homo sapiens, UniProt P42345); assay: mTOR LanthaScreen (TR-FRET, phosphorylation of 4EBP1); format: biochemical; settings: phosphorylation of GFP-4E-BP1, 10 μM ATP, 90 minutes
# Method in brief: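 Final reaction: 400 nM GFP-4E-BP1, 10 μM ATP, 0.15 μg/ml mTOR, compound 50 μM down to 23.84 pM (22-point 1:2 series) in 1% DMSO, buffer with 2 mM DTT; 90 min incubation.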
Structure (SMILES),"IC50 ([1]; Homo sapiens, U-87 MG, 2 h) [nM]",IC50 (mTOR) [nM],IC50 [1] [nM]
"Cc1nc(N)nc(-c2c(Nc3ccn(C(=O)Nc4ccccc4)n3)nc3ccccn23)n1 [Cpd 204, 3-((3-(4-amino-6-methyl-1,3,5-triazin-2-yl)imidazo[1,2-a]pyridin-2-yl)amino)-N-phenyl-1H-pyrazole-1-carboxamide]",90,90,
"Cc1nc(N)nc(-c2c(Nc3cnn(C(=O)Oc4ccccc4)c3)nc3ccccn23)n1 [Cpd 209, phenyl 4-((3-(4-amino-6-methyl-1,3,5-triazin-2-yl)imidazo[1,2-a]pyridin-2-yl)amino)-1H-pyrazole-1-carboxylate]",110,300,
"Cc1nc(N)cc(-c2c(Nc3ccn(-c4ccccn4)n3)nc3ccccn23)n1 [Cpd 216, 3-(6-amino-2-methyl-4-pyrimidinyl)-N-(1-(2-pyridinyl)-1H-pyrazol-3-yl)imidazo[1,2-a]pyridin-2-amine]",450,860,
"Cc1nc(N)cc(-c2c(Nc3ccn(C(=O)NCc4ccccc4)n3)nc3ccccn23)n1 [Cpd 222, 3-((3-(6-amino-2-methyl-4-pyrimidinyl)imidazo[1,2-a]pyridin-2-yl)amino)-N-benzyl-1H-pyrazole-1-carboxamide]",1810,5880,
"Cc1nc(N)cc(-c2c(Nc3ccn(C(=O)Nc4ccccc4C(F)(F)F)n3)nc3cccnn23)n1 [Cpd 239, 3-((3-(6-amino-2-methyl-4-pyrimidinyl)imidazo[1,2-b]pyridazin-2-yl)amino)-N-(2-(trifluoromethyl)phenyl)-1H-pyrazole-1-carboxamide]",10,8,
"Cc1nc(N)cc(-c2c(Nc3ccn(C(=O)Nc4cc(F)cc(F)c4)n3)nc3cccnn23)n1 [Cpd 242, 3-((3-(6-amino-2-methyl-4-pyrimidinyl)imidazo[1,2-b]pyridazin-2-yl)amino)-N-(3,5-difluorophenyl)-1H-pyrazole-1-carboxamide]",80,80,
"Cc1nc(N)cc(-c2c(Nc3ccnn3C(=O)N3CCC3)nc3cccnn23)n1 [Cpd 257, 3-(6-amino-2-methyl-4-pyrimidinyl)-N-(1-(1-azetidinylcarbonyl)-1H-pyrazol-5-yl)imidazo[1,2-b]pyridazin-2-amine]",1050,1690,
COc1ccc(-c2ccc3nc(Nc4ccn[nH]4)c(-c4nc(C)nc(N)n4)n3c2)cc1CO [Cpd 286],10,120,
"Cc1nc(N)nc(-c2c(Nc3ccn[nH]3)nc3ccc(CCC(O)CO)cn23)n1 (stereo not drawn) [Cpd 291, 4-(3-(4-amino-6-methyl-1,3,5-triazin-2-yl)-2-(1H-pyrazol-5-ylamino)-midazo[1,2-a]pyridin-6-yl)-1,2-butanediol]",,1210,170
"Cc1nc(N)nc(-c2c(Nc3cc[nH]n3)nc3ccc(-c4ccc(S(C)(=O)=O)cc4)cn23)n1 [Cpd 344, 3-(4-amino-6-methyl-1,3,5-triazin-2-yl)-6-(4-(methylsulfonyl)phenyl)-N-1H-pyrazol-3-ylimidazo[1,2-a]pyridin-2-amine]",20,80,
"CNS(=O)(=O)c1ccc(-c2ccc3nc(Nc4cc[nH]n4)c(-c4nc(C)nc(N)n4)n3c2)cc1 [Cpd 351, 4-(3-(4-amino-6-methyl-1,3,5-triazin-2-yl)-2-(1H-pyrazol-3-ylamino)imidazo[1,2-a]pyridin-6-yl)-N-methylbenzenesulfonamide]",30,230,
Cc1nc(N)nc(-c2c(Nc3ccn(C)n3)nc3ccc(-c4ccc(S(C)(=O)=O)cc4)cn23)n1 [Cpd 354],100,320,
